“Also recorded” adds a separate entry of the source. Like-named read-outs stand apart in the source and are kept apart here.
Experiments:
[1] = test system: T. cruzi (Y strain) trypomastigotes; assay: Anti-trypomastigote assay (resazurin viability); assay type: cell-based, Trypanosoma cruzi; conditions: Trypanosoma cruzi, read-out: IC50 trypo
Description: (§1) The cells and parasites were kept at 37 °C in a humidified atmosphere containing 5% CO2.
Benznidazole was used as the standard drug. The optical density was determined in FilterMax F5 (Molecular Devices) at 570 nm[38].
(§2) IC50 and CC50 values were calculated using a sigmoid dose-response curves in Graph–Pad Prism 5.0 software (GraphPad Software - San Diego, CA, USA). For the mechanism of action studies one-way ANOVA (Turkey’s Multiple Comparison test) was used for significance (p < 0.05). The assays were repeated at least twice and the samples were tested in duplicate.

[2] = test system: T. cruzi intracellular amastigotes; assay: Anti-amastigote assay in infected peritoneal macrophages (infection index); assay type: cell-based, Trypanosoma cruzi; conditions: Trypanosoma cruzi, Peritoneal macrophage, in Mus musculus, 48 h, read-out: IC50 Ama
Description: as §1
The cells were plated on a 16-well chamber slide – NUNC (Thermo Fisher Scientific) at 1 × 10^5 cells/well and incubated for 24 h at 37 °C in a 5% CO2 humidified incubator. […] Tested compounds were subsequently incubated with infected macrophages for 48 h at 37 °C (5% CO2 humidified incubator) in different nontoxic concentrations. Benznidazole was used as standard drug. At the end of the assay, slides were fixed with MeOH and stained with Giemsa, counted under a light microscope (EVOS M5000, Thermo, USA) and IC50 values were determined by the infection index.
as §2

[3] = Cytotoxicity against mammalian cells (MTT); assay type: cell-based, Murine; conditions: mouse, NCTC clone L929 cells
Description: Rhesus monkey kidney cells (LLC-MK2-ATCC CCL 7) were used for the maintenance of trypomastigotes of T. cruzi (Y strain) using RPMI-1640 medium supplemented with 2% fetal bovine serum (FBS). The cells and parasites were kept at 37 °C in a humidified atmosphere containing 5% CO2. Peritoneal macrophages, used in the experiments of anti-amastigote assay, were obtained by washing the peritoneal cavity of BALB/c mice, with RPMI-1640 medium supplemented with 10% FBS and kept at 37 °C in a 5% CO2 humidified incubator. Murine conjunctive cells (NCTC clone 929, ATCC) and LLC-MK2 were kept in RPMI-1640 supplemented with 10% FBS at the same conditions described above.
NCTC cells-clone L929 (6 × 10^4 cells/well) were seeded and incubated with tested compounds (200–1.56 µM) for 48 h at 37 °C in a 5% CO2 humidified incubator. Cytotoxic concentration (CC50) was determined by MTT assay. Optical density was determined in FilterMax F5 (Molecular Devices) at 570 nm. Selectivity Index (SI) was determined using the following ratio: CC50 against NCTC cells/IC50 against parasites.
as §2

[4] = PAMPA intestinal model (GIT); assay type: in vitro ADME
Description: Intestinal permeability of tested compounds was estimated applying the PAMPA model previously developed and validated. Briefly, stock solutions were prepared in dimethyl sulfoxide (DMSO) at the concentrations of 10 mM and then diluted with Tris buffer to give the final concentration donor solution at 300 µM and 5% DMSO. The assay procedure was initiated by filling each well of the microtiter plate (MultiScreen, catalogue no. MATRNPS50, Millipore Corporation, Bedford, MA, USA) with 300 μL of each donor drug solution. Carefully, and avoiding the pipette tip contact with the filter, the hydrophobic filter (0.45 μm) of each acceptor well of the 96-well microfilter plate (MultiScreen-IP, catalogue no. MAIPNTR10, Millipore Corporation, Bedford, MA, USA) was adsorbed with 6 μL of the artificial lipid solution which was composed of 2% of L-α-phosphatidylcholine from soybean dissolved, by sonication, in n-dodecane. Immediately after this application, 150 μL of Tris buffer containing 5% DMSO was added to the receiving well. The receiving well was mounted on the donor plate, keeping the underside of the membrane in contact with the donor solution. The assembled donor–acceptor plates were incubated under constant stirring (3 g) at 25 °C for approximately 16 h. Subsequently, the quantity of each compound presented at the receptor solution (150 μL) was determined by UV/VIS spectrophotometrically.

PAMPA-BBB model = assay type: in vitro ADME
Description: The methodology herein applied was similar to that described in the previous section, however with the purpose of assessing the permeability of the compounds through the blood brain barrier (BBB). Thus, stock solutions (10 mM) of each test compound were prepared in DMSO and diluted with phosphate buffered saline (PBS) at pH 7.4. The final concentration of donor solutions was 300 μM and DMSO of 5%. Artificial membrane lipid solutions were prepared daily by dissolving, in n-dodecane, the porcine brain lipid extracted as described[40] at the final concentration of 2% (m/v). PAMPA procedure was similar to that described in the previous section although, in PAMPA-BBB, the donor and acceptor solutions were prepared using phosphate buffer saline (PBS) at pH 7.4 and the Papp was obtained through the equation previously reported.

[5] = PAMPA intestinal model (GIT); assay type: in vitro ADME; conditions: read-out: plasma protein binding percentage
T. cruzi trypomastigotes [6] = assay: Plasma membrane permeability, Sytox Green probe; assay type: cell-based, Trypanosoma cruzi; conditions: at IC50, up to 120 min, vs untreated parasites
Description: The action of compounds 1d, 1e, 3d and 4a in the cell membrane permeability were evaluated in T. cruzi trypomastigotes (2 × 10^6/well) seeded in 96-well black polystyrene microplates. Parasites were washed and incubated in the dark with 1 μM SYTOX Green probe (Molecular Probes) in HANKS’ balanced salts solution (HBSS; Sigma-Aldrich) supplemented with 10 mM D-Glucose (HBSS + Glu) in 96-well black polystyrene microplates[43],[44]. […] The maximum permeabilization was obtained with the addiction of 0.5% Triton X-100. Fluorescence intensities were determined using a fluorimetric microplate reader (FilterMax F5 Multi-Mode Microplate Reader-Molecular Devices) with excitation and emission wavelengths of 485 and 520 nm, respectively. The following internal controls were used in the evaluation: i) the background fluorescence of the compound at the respective wavelengths, ii) the possible interference of DMSO.

T. cruzi trypomastigotes [7] = assay: Reactive oxygen species (ROS) generation, H2DCFDA probe; assay type: cell-based, Trypanosoma cruzi; conditions: for ROS generation: at IC50, 1 h of treatment; for ROS levels: at IC50, 2 h of treatment
Description: After, H2DCFDA probe (Molecular Probes) was added (5 µM) and incubated by 15 min[44]. The fluorescence intensity was measure using a fluorimetric microplate reader (FilterMax F5 Multi-Mode, Molecular Devices) with excitation and emission wavelengths of 485 and 520 nm, respectively. Azide (10 mM) was used as positive control and untreated parasites were used as negative control.

T. cruzi trypomastigotes [8] = assay: ATP generation (luciferin/luciferase); assay type: cell-based, Trypanosoma cruzi; conditions: at IC50, 2 h of incubation
Description: Untreated parasites and treated with the mitochondrial uncoupler CCCP (carbonyl cyanide m-chlorophenylhydrazone - Sigma) at 100 µM, were used as positive and negative controls, respectively. […] Luminescence intensity was measured using a luminometer (FilterMax F5 Multi-Mode, Molecular Devices) and the amount of ATP was calculated from an ATP standard curve.

T. cruzi trypomastigotes [9] = assay: Mitochondrial membrane potential, JC-1 flow cytometry; assay type: cell-based, Trypanosoma cruzi; conditions: at IC50, 2 h
Description: The ΔΨm were analyzed by flow cytometry (Attune NxT flow cytometer - ThermoFisher) with the probe 5,5′,6,6′-tetrachloro-1,1′,3,3′-tetraethylbenzimidazole carbocyanide iodide (JC-1, ThermoFisher). The ratio between red/green fluorescence intensities (BL-2/BL-1; 590 nm/530 nm) were calculated[45],[46]. […] The parasites were incubated in the dark for 10 min at 37 °C and washed in HBSS + Glu to eliminate the non-internalized dye. As internal controls of the assay were used: (i) non-treated cells and (ii) trypomastigotes treated with 100 μM CCCP.

[10] = PAMPA intestinal model, 300 µM donor, Tris buffer, 25 °C, 16 h, read-out: Papp GIT
[11] = PAMPA-BBB model, 300 µM donor, PBS pH 7.4, read-out: Papp BBB
[12] = T. cruzi trypomastigotes, 24 h incubation, resazurin
[13] = intracellular amastigotes in BALB/c peritoneal macrophages

C=CCc1ccc(O)c(OC)c1 [compound 5, eugenol]
IC50 ([1]; 24 h): > 100 µM | IC50 [2]: > 100 µM | CC50 at 48 h [3]: > 200 µM | Papp at 16 h, 300 µM [4, 10]: 14.4 ×10⁻⁶ cm/s | Papp at 16 h, 300 µM (PAMPA-BBB model; [11]): 3.98 ×10⁻⁶ cm/s | fraction unbound at 16 h, 300 µM [5]: < 0.1

C=CCc1cc([C@H]2Oc3c(OC)cc(/C=C/C)cc3[C@@H]2C)cc(OC)c1O [1d, 2-allyl-6-methoxy-4-[(2S,3 S)-7-methoxy-3-methyl-5-[(E)-prop-1-enyl]-2,3-dihydrobenzofuran-2-yl]phenol]
IC50 [1, 12]: 5 ± 0.8 µM | IC50 [2, 13]: > 100 µM | CC50 at 48 h [3]: 45.5 ± 16.7 µM | Papp at 16 h, 300 µM ([4]; PAMPA): 0.38 ×10⁻⁶ cm/s | Papp at 16 h, 300 µM (PAMPA-BBB model; PAMPA, pH 7.4): 0.28 ×10⁻⁶ cm/s | Sytox Green fluorescence levels (plasma membrane permeability) (T. cruzi trypomastigotes [6]): no changes in the fluorescence levels | ROS generation (T. cruzi trypomastigotes [7]): increased the reactive oxygen species (ROS) levels; also recorded: increased ROS generation | ROS levels (T. cruzi trypomastigotes [7]): drop of the levels | ATP levels (T. cruzi trypomastigotes [8]): increased ATP production | mitochondrial membrane potential (T. cruzi trypomastigotes [9]): induced hyperpolarization of mitochondrial membrane potential; also recorded: mitochondrial hyperpolarization, but with no statistical significance

COc1cc(CO)ccc1OC(C)=O [3b, [4-(hydroxymethyl)-2-methoxy-phenyl] acetate]
IC50 [1, 12]: 5.1 ± 0.7 µM | IC50 [2, 13]: > 100 µM | CC50 at 48 h [3]: 45.8 ± 14.9 µM | Papp at 16 h, 300 µM ([4]; PAMPA): 5.07 ×10⁻⁶ cm/s | Papp at 16 h, 300 µM (PAMPA-BBB model; PAMPA, pH 7.4): 3.67 ×10⁻⁶ cm/s | Sytox Green fluorescence levels (plasma membrane permeability) (T. cruzi trypomastigotes [6]): no changes in the fluorescence levels | ROS generation (T. cruzi trypomastigotes [7]): increased ROS generation | ROS levels (T. cruzi trypomastigotes [7]): drop of the levels | ATP levels (T. cruzi trypomastigotes [8]): increased ATP production | mitochondrial membrane potential (T. cruzi trypomastigotes [9]): mitochondrial hyperpolarization, but with no statistical significance

C/C=C/c1ccc(OC)c(OC)c1 [4a, 1,2-dimethoxy-4-[(E)-prop-1-enyl]benzene]
IC50 ([1]; 24 h): 8.8 ± 2 µM | IC50 [2]: > 100 µM | CC50 at 48 h [3]: > 200 µM | Papp at 16 h, 300 µM [4, 10]: 15.9 ×10⁻⁶ cm/s | Papp at 16 h, 300 µM (PAMPA-BBB model; [11]): 1.29 ×10⁻⁶ cm/s | Sytox Green fluorescence levels (plasma membrane permeability) (T. cruzi trypomastigotes [6]): no changes in the fluorescence levels | ROS generation (T. cruzi trypomastigotes [7]): increased the reactive oxygen species (ROS) levels; also recorded: increased ROS generation | ROS levels (T. cruzi trypomastigotes [7]): drop of the levels | ATP levels (T. cruzi trypomastigotes [8]): increased ATP production | fraction unbound at 16 h, 300 µM [5]: < 0.1

COc1ccc(C=O)cc1OC [2a, 3,4-dimethoxybenzaldehyde]
IC50 ([1]; 24 h): > 100 µM | IC50 [2]: > 100 µM | CC50 at 48 h [3]: > 200 µM | Papp at 16 h, 300 µM [4, 10]: 20.7 ×10⁻⁶ cm/s | Papp at 16 h, 300 µM (PAMPA-BBB model; [11]): 7 ×10⁻⁶ cm/s | fraction unbound at 16 h, 300 µM [5]: < 0.1

C/C=C/c1cc(OC)c2c(c1)[C@H](C)[C@@H](c1cc(OC)c3oc(C)cc3c1)O2 [1e, 7-methoxy-5-[(2 S,3 S)-7-methoxy-3-methyl-5-[(E)-prop-1-enyl]-2,3-dihydrobenzofuran-2-yl]-2-methyl-benzofuran]
IC50 [1, 12]: 10.5 ± 5.7 µM | IC50 [2, 13]: > 100 µM | CC50 at 48 h [3]: > 200 µM | Papp at 16 h, 300 µM ([4]; PAMPA): 0.55 ×10⁻⁶ cm/s | Papp at 16 h, 300 µM (PAMPA-BBB model; PAMPA, pH 7.4): 0.23 ×10⁻⁶ cm/s | Sytox Green fluorescence levels (plasma membrane permeability) (T. cruzi trypomastigotes [6]): exception of 1e after 120 min | ROS generation (T. cruzi trypomastigotes [7]): increased the reactive oxygen species (ROS) levels; also recorded: increased ROS generation | ROS levels (T. cruzi trypomastigotes [7]): drop of the levels | ATP levels (T. cruzi trypomastigotes [8]): no significant alterations in ATP levels | mitochondrial membrane potential (T. cruzi trypomastigotes [9]): induced hyperpolarization of mitochondrial membrane potential; also recorded: mitochondrial hyperpolarization, but with no statistical significance

From publication PMC7096397, “Improving the drug-likeness of inspiring natural products - evaluation of the antiparasitic activity against Trypanosoma cruzi through semi-synthetic and simplified analogues of licarin A” (Scientific Reports, 2020)
